Data as given in patent publication US20160009752A1, “[…]-OXIMINO-AMINOALKYLETHERS AND PROCESS FOR PREPARATION THEREOF, USEFUL AS ANTIDIABETIC AND […] AGENTS” (COUNCIL OF SCIENTIFIC & INDUSTRIAL RESEARCH, priority 2013, published 2016).

Key:
[1] = Stability in simulated gastric and intestinal fluid; type: in vitro ADME
[2] = test system: STZ-induced diabetic rats; test: Streptozotocin-induced diabetic rat model (STZ); type: in vivo; conditions: 100 mg/kg
Protocol: Male albino rats (Sprague Dawley Strain) of body weight 160±20 g were procured from the colony of CDRI Animal House. 4 to 5 animals were kept in one polypropylene cage and acclimatized for one week in the new environment. The animals were made diabetic by injecting streptozotocin (STZ) intraperitoneally to the overnight starved animals at a dose of 60 mg/kg prepared in 100 mM citrate buffer (pH 4.5). Fasting blood glucose level of each animal was measured after 48 hours post STZ injection by Glucostrips (Roche) using Glucometer (ACCU-CHEK II; Roche Diagnostics, USA) and animals showing blood glucose level above 280 mg/dl were considered as diabetic. The diabetic rats with fasting blood glucose values varying between 280-450 mg/dl were included in this study. Animals were divided into groups consisting of five animals in each. Group one was considered as a control group, where as the other groups were termed as experimental groups. Rats of experimental group were usually given 100 mg/kg body weight of the test samples unless stated otherwise and standard drug i.e. metformin, respectively. The test samples and standard drug i.e. metformin was always prepared in the vehicle 1% gum acacia. 30 min post administration of the test samples/vehicle/standard drug, blood glucose levels of the animals of all the groups were measured at 30, 60, 90, 120, 180, 240, 300 and 1440 min. Food (not water) was removed from the cages during the experimental period. A plot was drawn between time and blood glucose levels on x and y axis, respectively and the area under curve (AUC) between 0 to 300 min were calculated of each group. The percent decline in AUC of the experiment group compared to sham treated control group termed as % antihyperglycaemic activity. Statistical comparison between the groups was done by employing Student's ‘t’ test.

SMILES: C/C(=N\OCCN1CCCCC1)[C@H]1CC[C@H]2[C@@H]3CC=C4C[C@@H](O)CC[C@]4(C)[C@H]3CC[C@]12C [Compound 14b, 3β-Hydroxy-pregna-5-en-20-one-O-(2-piperidin-1-yl-ethyl)-oxime]
- stability in simulated gastric fluid (SGF) ([1]; SGF): low stability
- stability in simulated intestinal fluid (SIF) ([1]; SIF): good stability
- melting point: 130 to 135 °C
- Blood glucose level, 0 min post sucrose load [2]: 357.4 ± 17.9 mg/dL
- Blood glucose level, 30 min post sucrose load [2]: 353.8 ± 6.3 mg/dL
- Blood glucose level, 60 min post sucrose load [2]: 387.0 ± 20.8 mg/dL
- Blood glucose level, 90 min post sucrose load [2]: 374.4 ± 23.1 mg/dL
- Blood glucose level, 120 min post sucrose load [2]: 375.0 ± 20.2 mg/dL
- Blood glucose level, 180 min post sucrose load [2]: 366.6 ± 16.7 mg/dL
- Blood glucose level, 240 min post sucrose load [2]: 333.0 ± 11.7 mg/dL
- Blood glucose level, 300 min post sucrose load [2]: 301.4 ± 12.1 mg/dL
- Blood glucose level, 1440 min post sucrose load [2]: 408.0 ± 17.1 mg/dL
